Measurements reported in patent US20040106545A1, “Compounds and methods for modulating cell adhesion” (priority 1996, published 2004).
Where two headings read alike, the source gives them in different places. Positions of bridges follow the written chain, without caps; N, C: chain ends. Residues, ends and D or L forms follow the SMILES beside them.

How the values were obtained:
MDA-MB231 [1] = test: Cytotoxicity, MTT assay, MDA-MB231; assay type: cell-based, human
Summary of the method: (§1)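 Peptide concentrations reached 100 μM. Both an MTT cytotoxicity read-out and ^3H-thymidine incorporation for proliferation were used.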

MDA-MB231 [2] = assay type: cell-based, human; conditions: 3 h
Summary of the method: as §1

HUVEC = assay type: cell-based, human; conditions: 3 h
Summary of the method: as §1

PC-3 [3] = assay type: cell-based, human; conditions: 3 h
Summary of the method: as §1

HMVEC = assay type: cell-based, human; conditions: 3 h
Summary of the method: as §1

IAFp2 = assay type: cell-based, human; conditions: 3 h
Summary of the method: as §1

WI-38 = assay type: cell-based, human; conditions: 3 h
Summary of the method: as §1

PC-3 [4] = test: Cytotoxicity, MTT assay, PC-3; assay type: cell-based, human
Summary of the method: as §1

Solubility in RPMI = assay type: physicochemical; conditions: 1 mM
N-cadherin [5] = biological target: T1, N-cadherin (Gallus gallus, UniProt P10288); test: Neurite outgrowth inhibition, rat neurons (Example 21); assay type: cell-based; conditions: read-out: % Inhibition of neurite outgrowth; 250 μg/mL
T1 construct: expressed in transfected cells; host or cells: 3T3 fibroblasts (monolayer)
T1 sequence (P10288 165-912): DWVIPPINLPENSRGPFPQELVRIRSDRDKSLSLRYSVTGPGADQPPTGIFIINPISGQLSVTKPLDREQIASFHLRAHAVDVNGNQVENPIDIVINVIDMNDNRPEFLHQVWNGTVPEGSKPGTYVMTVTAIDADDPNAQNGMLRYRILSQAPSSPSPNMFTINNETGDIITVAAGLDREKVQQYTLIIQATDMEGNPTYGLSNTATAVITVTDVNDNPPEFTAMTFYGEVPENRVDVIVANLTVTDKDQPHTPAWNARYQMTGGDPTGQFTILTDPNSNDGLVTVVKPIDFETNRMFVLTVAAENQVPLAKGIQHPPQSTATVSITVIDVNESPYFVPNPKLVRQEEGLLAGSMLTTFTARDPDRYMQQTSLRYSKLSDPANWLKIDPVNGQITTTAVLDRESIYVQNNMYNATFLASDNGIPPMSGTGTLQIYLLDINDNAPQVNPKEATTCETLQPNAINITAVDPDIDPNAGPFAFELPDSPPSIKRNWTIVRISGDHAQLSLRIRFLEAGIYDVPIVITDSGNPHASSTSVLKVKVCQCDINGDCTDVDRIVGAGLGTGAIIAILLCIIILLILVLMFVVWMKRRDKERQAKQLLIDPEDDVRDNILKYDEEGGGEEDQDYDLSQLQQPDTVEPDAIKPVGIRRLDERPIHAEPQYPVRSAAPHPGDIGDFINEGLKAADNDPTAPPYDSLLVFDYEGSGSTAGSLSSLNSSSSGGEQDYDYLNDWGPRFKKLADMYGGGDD

N-cadherin [6] = biological target: T2, N-cadherin (Homo sapiens, UniProt P19022); conditions: cited from earlier work
T2 sequence (P19022 160-906): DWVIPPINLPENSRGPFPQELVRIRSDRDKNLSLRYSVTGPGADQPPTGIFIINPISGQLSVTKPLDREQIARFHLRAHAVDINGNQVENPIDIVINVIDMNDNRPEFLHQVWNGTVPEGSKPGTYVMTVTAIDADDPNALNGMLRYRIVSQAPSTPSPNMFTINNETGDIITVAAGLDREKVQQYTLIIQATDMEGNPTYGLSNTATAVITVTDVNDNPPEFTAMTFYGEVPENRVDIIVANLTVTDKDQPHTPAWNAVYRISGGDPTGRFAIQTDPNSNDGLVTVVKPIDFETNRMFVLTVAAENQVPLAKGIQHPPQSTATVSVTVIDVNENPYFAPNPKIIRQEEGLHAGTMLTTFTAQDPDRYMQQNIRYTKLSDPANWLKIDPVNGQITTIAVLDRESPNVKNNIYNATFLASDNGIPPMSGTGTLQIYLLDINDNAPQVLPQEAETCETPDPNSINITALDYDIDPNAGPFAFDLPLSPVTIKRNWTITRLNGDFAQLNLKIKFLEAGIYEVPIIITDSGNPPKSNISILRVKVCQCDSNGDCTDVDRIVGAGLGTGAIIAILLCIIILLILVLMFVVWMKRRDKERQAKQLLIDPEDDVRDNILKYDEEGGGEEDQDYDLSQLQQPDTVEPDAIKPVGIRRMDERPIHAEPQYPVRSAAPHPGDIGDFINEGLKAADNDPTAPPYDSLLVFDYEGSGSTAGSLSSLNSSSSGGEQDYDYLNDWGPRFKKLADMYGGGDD

IC50 (MDA-MB231 [2]) [µM] | IC50 (PC-3 [3]) [µM] | IC50 (HMVEC) [µM] | IC50 (IAFp2) [µM] | solubility in RPMI (Solubility in RPMI) | inhibition at 250 µg/mL (N-cadherin [5]) [%] | Compound | IC50 (MDA-MB231 [1]) [µM] | IC50 (HUVEC) [µM] | IC50 (WI-38) [µM] | IC50 (PC-3 [4]) [µM] | stimulation of neurite outgrowth (N-cadherin [6])
52 | > 100 | > 100 | > 100 | *Incompletely soluble in RPMI at 1 mM | 0 | CC(=O)N[C@H]1CSSC[C@@H](C(N)=O)NC(=O)[C@H](CO)NC(=O)[C@H](C(C)C)NC(=O)[C@H](C)NC(=O)[C@H](Cc2c[nH]cn2)NC1=O [N—Ac—CHAVSC—NH2, N-Ac-Cys-His-Ala-Val-Ser-Cys-NH2] (Ac-CHAVSC-NH2; disulfide 1-6 (inferred)) | > 100 | 57 | > 100 | > 100 | –
– | – | – | – | – | – | N—AC-CHAVDINGHAVDIC-NH2: cyclic peptide presenting two HAV motifs in an antiparallel fashion (Williams et al. 2002) (Ac-CHAVDINGHAVDIC-NH2; disulfide 1-14 (inferred)) | – | – | – | – | capable of stimulating neurite outgrowth
